# Source: a melting point compilation (Tetko et al.; mined from patent text by program, amines drawn as free bases though some values may be those of a salt)
row,Compound,melting point [°C]
1,COC1C(OC(=O)N2CCOCC2)CCC2(CO2)C1C1(C)OC1CCC(C)C (configuration not stated),64 to 65
2,CS(=O)(=O)c1ccc(-c2cnn(Cc3ccc([N+](=O)[O-])cc3)c(=O)c2-c2ccc(F)cc2)cc1,183 to 184
3,CC(C)n1c2ccccc2c2cc(NC(=O)c3ccccc3Cl)ccc21,195
4,"CC(O)(c1cccnc1)C1CCN(C[C@@]23C[C@@H](c4ccccc42)c2ccc(Cl)cc23)CC1 (single isomer, unassigned)",87 to 93
5,Fc1ccc(/C=C/c2nc(COc3ccc(CCCCn4ccnn4)cc3)co2)c(F)c1,115 to 117
6,CCOC(=O)c1c(-c2ccc(F)cc2)c(-c2ccc(F)cc2)c(C=O)n1C(C)C,92 to 94
7,CC(C)(C)c1ccc([PH](=O)c2ccc(C(C)(C)C)cc2)cc1,142
8,O=C1Cc2ccc(C3CCCC3)cc2O1,42 to 43
9,CC(C)(C)O[C@@H]1C[C@@H](CO)N(S(=O)(=O)c2ccc3ccccc3c2)C1,124 to 125
10,N#Cc1c(N2CCN(C(=O)c3cccs3)CC2)c2cccnc2n(Cc2ccc(F)cc2)c1=O,271
11,COC(=O)c1ncn2c1C(C)N=C(c1ccccc1F)c1cc(Cl)ccc1-2 (configuration not stated),190 to 191
12,CCSc1nnc(S)n1N,172
13,COc1cc2c(cc1OC)C(O)=C(c1cc(OCc3ccccc3)ccc1[N+](=O)[O-])C2=O,120
14,COc1ccc2cccc(C=CN3C(=O)c4ccccc4C3=O)c2c1,146
15,CCCCC(CC)COc1ccc(-c2nc(-c3ccc(OCC(CC)CCCC)cc3O)nc(-c3cccn3Cc3ccccc3)n2)c(O)c1 (configuration not stated),66 to 68
16,O=C(O)C1(CCCCCCCCCCCCC2(C(=O)NCCO)CC2)CC1,81.1 to 83.8
17,Cc1ccc(NC(=O)NCc2cccc3c2C(=O)N(C2CCC(=O)NC2=O)C3=O)cc1Cl (configuration not stated),238 to 240
18,O=[N+]([O-])c1ccc(N2CCN(Cc3ccccc3)S2(=O)=O)cc1,164 to 165
19,NCC(=O)NCc1cccnc1,87 to 88
20,O=C(N[C@H](Cc1ccc(C(F)(F)F)cc1)[C@@H](O)c1ccc(Cl)nc1)c1ccc(F)c2ccccc12 (racemic),188 to 189
21,CC(CCCn1cc(CCO)c(=O)[nH]c1=O)C(=O)O (configuration not stated),105
22,CCN1CCN(Cc2ccc(C(=O)Nc3ccc(C)c(Nc4nccc(-c5cccnc5)n4)c3)cc2)CC1,210
23,O=c1cc(OCc2ccccc2)cc(C=Cc2ccc3c(c2)OCO3)o1,150 to 152
24,COc1cc(CCNc2ncnc3scnc23)ccc1Oc1c(F)cnc(C(F)(F)F)c1F,108 to 112
25,Cc1cc(C(O)(C(F)(F)F)C(F)(F)F)cc(C)c1NCCCN,130 to 133

row,Compound,melting point [°C]
1,CCCc1c[nH]c(CCC(=O)N(C)C)c1,71 to 72
2,CN1CCN(C2=Nc3ccccc3N3CCCc4cccc2c43)CC1,129 to 132
3,O=C(NCCc1cccc2ccccc12)C1CC1,117 to 118
4,CN=C1CSc2ccccc2CN1,278 to 280
5,ClC1=Nc2ccccc2Sc2ccccc21,93 to 97
6,COc1ccc(-n2nc(Sc3cc(OC)cc(OC)c3)c(C)c(C#N)c2=O)cc1,181 to 184
7,CC(C)(O)CCCCCc1ccc(CCc2ccc(O)c(CO)c2)cc1,110 to 111
8,CCSC(=O)CCS(=O)CC (configuration not stated),35.5 to 36
9,COc1ccc2c(C3=C(c4cn(C)c5cc(OC)ccc45)C(=O)NC3=O)cn(C)c2c1,257 to 258
10,COc1ccccc1NC(C#N)c1c(Cl)cccc1Cl (configuration not stated),118
11,COc1ccc(-c2cc(C(C)(O)C(F)(F)F)[nH]c2-c2ccc(OC)cc2)cc1 (configuration not stated),111 to 112
12,CN1CCN(c2cnc(-c3cc(Cl)cc(Cl)c3Cl)c(N)n2)CC1,185
13,CS(=O)(=O)c1ccc(-c2cc(=O)[nH]c(C(F)(F)F)c2-c2ccc(F)cc2)cc1,232 to 242
14,CCc1c([N+](=O)[O-])c(C(N)=O)nn1C[C@@H]1CCCN1C(=O)OC(C)(C)C,68 to 75
15,Cc1c(F)cccc1Cc1c(-c2ccccc2)c2ccccn2c1C(=O)N1CCN(C(=O)OC(C)(C)C)[C@@H](CCO)C1,85
16,CCCCC(N=O)C(C)(C)Cl (configuration not stated),84 to 85
17,O=C(CBr)OCCCCOC(=O)CBr,62 to 62.5
18,CC(C)=CCC(C(=O)O)C(=O)N(Nc1ccccc1)c1ccccc1 (configuration not stated),166
19,COc1ccc(C2=NC(NC(=O)Nc3ccc(C(=O)c4ccccc4)cc3)c3nnc(C)n3-c3ccccc32)cc1 (configuration not stated),225
20,NS(=O)(=O)OCCOc1ccc(OCc2ccccc2)cc1,125 to 128
21,COc1ccc(NC(=O)N2CCc3cc(S(=O)(=O)N4CC(c5ccccc5)NC4=O)ccc32)cc1 (configuration not stated),268 to 270
22,NC(=O)N(O)CC1CC(c2ccco2)C1 (configuration not stated),89 to 100
23,COC(=O)C(=O)CC(=O)c1ccccn1,86 to 87
24,CN(CCC#N)C(=O)c1nc(Cl)c(Cl)[nH]1,184
25,CCOC(=O)C1=C(C)NC(COC(=O)CCN(C)Cc2ccccc2)=C(C(=O)OCC)C1c1ccccc1Cl (configuration not stated),86 to 87

# Further lines, results first:
row,melting point [°C],Compound
1,179 to 181,Cc1ccc(C(=S)c2cc(Cl)cc3c2NC(=O)C3)cc1
2,175 to 176,O=C(NCc1ccccc1)c1ccnc(NC(=O)c2ccccc2F)c1
3,141 to 143,Cc1c(Cl)c(Oc2c(Cl)cc(C(F)(F)F)cc2Cl)nn1C(=O)NCCCl
4,158 to 162,Cc1nc2c(OCc3cc(N(C)S(C)(=O)=O)ccc3Cl)cccn2c1Br
5,195 to 196,CCCOc1cc2c(cc1C1CCCc3oc(/C=C/C(=O)O)cc31)C(C)(C)CCC2(C)C (configuration not stated)
6,127 to 129,Cc1oc2c(-n3c(=O)cc(C(F)(F)F)n(C)c3=O)c(F)cc(Cl)c2c1CC(N)=O
7,> 250,COc1ccc(S(=O)(=O)N2CCc3[nH]c4c(cnc5cc(Cl)ccc54)c3C2)cc1
8,126 to 129,CCOC(=O)c1cc(Cl)c(S(C)(=O)=O)c(-c2cc(C)no2)c1C
9,50 to 55,[N-]=[N+]=NCc1cc(Cl)c(C(=O)c2ccc(Cl)cc2)c(Cl)c1
10,140 to 142,COc1cc2c(cc1O)CCN(S(=O)(=O)c1ccccc1OC)C2
11,239 to 240,CC(C)(C)OC(=O)c1ncn2c1cc(C(=O)N1CCNCC1)c1cc(Cl)ccc12
12,> 300,CCOC(=O)C1=Cc2cc(Cl)cc(-c3nc4ccccc4[nH]3)c2OC1C(F)(F)F (configuration not stated)
13,122 to 123,Cc1cc(OCCc2nc(-c3ccc(-c4ccccc4)cc3)oc2C)ccc1OC(C)(C)C(=O)O
14,89 to 95,CCCNC(=O)C(C)=Cc1ccc2c(c1)c(Cc1ccc(C(=O)O)cc1OC)cn2C
15,122 to 124,COC(=O)c1ccccc1NC(=O)c1ccc(OC)cc1
16,71 to 72,COC(=O)c1cc2cc(C3OCCO3)ccc2[nH]1
17,82 to 84,CCOC(=O)CC(=O)Cn1nc(CC)c(Oc2cc(Cl)cc(Cl)c2)c1CC
18,202 to 203,O=C(O)c1ccc2c(c1)C=C(CCN1CCCC1)CC2
19,73 to 74,CCOC(=O)c1cc2c(F)ccc(Br)c2s1
20,133 to 135,O=C1CC(C(=O)Nc2ccccc2O)CN1 (configuration not stated)
21,291 to 299,COc1ccc(-c2[nH]c3cn[nH]c(=O)c3c2Cl)cc1OC(C)C
22,196,O=C(O)c1coc2c(Cl)cc(Cl)cc2c1=O
23,225 to 226,Nc1ccc(S(=O)(=O)c2cc(Cl)nc(N3CCCC3)c2)cc1
24,180,COc1ccc(CCNc2nc(C)c(CCO)c(=O)[nH]2)cc1
25,149 to 150,CCCCOc1c(CO)n(CC(C)(C)C)c(=O)c2cc(F)ccc12
26,69 to 71,CCOC(=O)C(=Nc1ccccc1)c1cccn1C

row,melting point [°C],Compound
1,191 to 193,O=C(O)c1ccccc1C(=O)c1ccncc1
2,190 to 193,CN(C)c1nc2cc(Cl)c(Cl)cc2n1C1CC(CO)C(O)C1O (configuration not stated)
3,90 to 91,COC(=O)O[C@@H]1[C@@H](c2ccccc2)Nc2c(ccn3c(C)c(C)nc23)[C@H]1OC
4,58 to 59,CCCCCCCCC(=S)n1c(-c2cscn2)nc2ccccc21
5,97 to 98,CN(C)C(=O)c1cc(Cl)ccc1N
6,212,Cc1ccc2c(NCc3ccc(NC(=O)C4CCN(Cc5ccccc5)CC4)cc3)nc(Cl)nc2c1
7,73,CCOC(=O)c1c(Cl)nc2ccsc2c1Cl
8,201 to 204,O=C(CCCl)c1cc2[nH]c(=O)[nH]c2cc1Cl
9,90,CCCCCOc1ccc2c(c1)C=C(CNC(=O)CCC)CO2
10,229 to 230,Cc1cc(Cc2n[nH]c(=O)c3ccccc23)cc(C)n1
11,178 to 179,Cc1nc(-n2cnn(Cc3ccc(F)cc3)c2=O)sc1C(=O)NCc1cc[nH]n1
12,124 to 125,CC(C)(C)c1ccc(C(=O)c2c(N)sc3c2CCN(Cc2ccccc2)C3)cc1
13,85 to 86,CCCCC(COc1cccc(COc2cccc3cccnc23)c1)OC(C)=O (configuration not stated)
14,152,COC(=O)NC(C(=O)O)c1ccc([N+](=O)[O-])cc1 (configuration not stated)
15,247 to 249,O=C(O)c1cccc(C23CC4CC(CC(C4)C2)C3)c1
16,215,CCNC(=N)NC(=O)c1c(-c2ccccc2)noc1C
17,72.5,CCC(=O)Oc1cc(OC)cc(OC)c1C(=O)C=Cc1ccc(C)o1
18,220,CC(C)N1CC(C(=O)c2c[nH]c(Cc3ccc(F)cc3)n2)=C(O)C1=O
19,135 to 136,COC(=O)C1=Cc2cc(Br)ccc2N(C(=O)OC)CC1
20,160 to 161,Cc1ccc(-c2nc(C(=O)O)c(C)s2)s1
21,144,Cc1ccc(N=c2sc3ncccc3c(=O)n2C)cc1
22,66 to 68,O=C(O)CSc1nc(-c2ccccc2)c(-c2ccccc2)o1
23,228,COC(=O)c1nc2cc(F)ccc2c(O)c1C(=O)OC
24,57 to 59,COc1ccc(C=CC(=O)c2ccco2)c(OC)c1
25,90 to 92,CC(OCCc1ccc(-c2ccc(Cl)cc2)cc1)C(=O)O (configuration not stated)
26,178,CSc1c2n(c3ccccc13)CCC2N(O)C(N)=O (configuration not stated)
